According to US11779551B1 (priority 2022, dated 2023):

Tests used:
human lymphoblast cells [1] = format: cell-based
human lymphoblast cells [2] = system: human lymphoblast cells

Row | Structure (SMILES) | effect on redox state of the proteome (human lymphoblast cells [1]) | effect on cytotoxicity of PbTx-2 (LDH activity) (human lymphoblast cells [2]) | reduction of PbTx-2 cytotoxicity (human lymphoblast cells [2])
1 | O=S(=O)(O)CCS [MESNA, sodium mercaptoethyl sulfonate] | restored to control levels | significantly reduced cytotoxicity | approximately 50%
2 | NCCS [cysteamine] | – | significantly reduced cytotoxicity | –
